From ChEMBL document CHEMBL4425176, “1,2,3-Triazoles as inhibitors of indoleamine 2,3-dioxygenase 2 (IDO2)” (Bioorg Med Chem Lett, 2016)

How the values were obtained:
Type in all cases: cell-based
[1] = target: T1, Indoleamine 2,3-dioxygenase 2 (Mus musculus) (UniProt Q8R0V5); experiment: Inhibition of mouse IDO2 transfected in HEK293T cells assessed as kynurenine formation using L-Trp as substrate at 200 uM after 24 hrs
T1 sequence (whole entry): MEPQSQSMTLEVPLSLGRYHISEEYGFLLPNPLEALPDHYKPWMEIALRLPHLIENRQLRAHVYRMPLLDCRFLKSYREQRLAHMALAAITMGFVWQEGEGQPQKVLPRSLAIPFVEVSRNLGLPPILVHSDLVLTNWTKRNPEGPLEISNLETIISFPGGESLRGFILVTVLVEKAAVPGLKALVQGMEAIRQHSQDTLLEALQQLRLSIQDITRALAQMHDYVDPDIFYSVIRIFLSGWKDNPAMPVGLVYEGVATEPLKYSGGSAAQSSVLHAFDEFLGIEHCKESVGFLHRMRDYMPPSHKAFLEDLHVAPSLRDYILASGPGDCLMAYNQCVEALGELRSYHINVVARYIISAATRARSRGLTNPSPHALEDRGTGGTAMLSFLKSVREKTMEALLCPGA

[2] = target: T2, Indoleamine 2,3-dioxygenase 1 (Homo sapiens, UniProt P14902); experiment: Inhibition of human IDO1 transfected in HEK293T cells assessed as kynurenine formation using L-Trp as substrate at 200 uM after 7 hrs
Target sequence in this assay (P14902 whole entry, looked up): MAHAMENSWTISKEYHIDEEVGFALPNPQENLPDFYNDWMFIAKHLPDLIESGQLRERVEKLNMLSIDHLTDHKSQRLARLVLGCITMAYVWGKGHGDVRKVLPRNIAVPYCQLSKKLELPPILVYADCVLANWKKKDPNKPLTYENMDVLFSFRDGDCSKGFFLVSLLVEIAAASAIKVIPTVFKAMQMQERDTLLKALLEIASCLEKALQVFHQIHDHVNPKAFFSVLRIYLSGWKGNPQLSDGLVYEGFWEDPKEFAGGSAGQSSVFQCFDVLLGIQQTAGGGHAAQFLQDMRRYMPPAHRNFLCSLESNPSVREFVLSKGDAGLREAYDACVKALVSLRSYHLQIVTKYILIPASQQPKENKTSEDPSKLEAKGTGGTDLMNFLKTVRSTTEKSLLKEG

HEK-293T = experiment: Cytotoxicity against HEK293T cells transfected with human IDO1 or mouse IDO2 assessed as apoptotic cells at 200 uM after 7 hrs or 24 hrs by DAPI staining based cytometric analysis relative to control
[3] = target: T3, Indoleamine 2,3-dioxygenase 2 (Mus musculus, UniProt Q8R0V5); experiment: Inhibition of mouse IDO2 transfected in HEK293T cells assessed as kynurenine formation using L-Trp as substrate after 24 hrs
T3 sequence (Q8R0V5 whole entry): T1 sequence (whole entry)

[4] = Selectivity ratio of IC50 for human IDO1 to IC50 for mouse IDO2 transfected in HEK293T cells
[5] = target: T2, Indoleamine 2,3-dioxygenase 1; experiment: Inhibition of human IDO1 transfected in HEK293T cells assessed as kynurenine formation using L-Trp as substrate after 7 hrs
Target sequence in this assay (P14902 whole entry): as the sequence (P14902 whole entry, looked up) above

OC(Cc1ccccc1-c1c[nH]nn1)c1ccccc1 (configuration not stated)
inhibition [1]: 47%
inhibition [2]: 28%
Activity (HEK-293T): 0%

Clc1ccc(CCc2ccccc2)c(-c2c[nH]nn2)c1
inhibition [1]: 97%
inhibition [2]: 70%
Activity (HEK-293T): 51.6%

Clc1ccc(-c2c[nH]nn2)cc1
inhibition [1]: 27%
inhibition [2]: 9%

Oc1ccccc1-c1c[nH]nn1
inhibition [1]: 14%
inhibition [2]: 96%
Activity (HEK-293T): 0.2%

c1ccc(-c2c[nH]nn2)c(CCC2CCCCC2)c1
inhibition [1]: 95%
inhibition [2]: 77%
Activity (HEK-293T): 72.3%

Clc1ccccc1-c1cnn[nH]1
inhibition [1]: 4%
inhibition [2]: 83%

Clc1cccc(-c2c[nH]nn2)c1/C=C/C1CCCCC1
IC50 [3]: 110 µM
inhibition [1]: 65%
Ratio IC50 [4]: 1
IC50 [5]: 110 µM
inhibition [2]: 56%
Activity (HEK-293T): 5.4%

Clc1cccc(-c2c[nH]nn2)c1
inhibition [1]: 2%
inhibition [2]: 95%
Activity (HEK-293T): 0%

Oc1ccc(Cl)cc1-c1c[nH]nn1
IC50 [3]: 120 µM
inhibition [1]: 43%
inhibition [2]: 98%
Activity (HEK-293T): 0%

c1ccc(-c2cnn[nH]2)cc1
inhibition [1]: 1%
inhibition [2]: 93%
Activity (HEK-293T): 5.3%

Clc1cccc(-c2c[nH]nn2)c1CCC1CCCC1
inhibition [1]: 90%
inhibition [2]: 71%
Activity (HEK-293T): 21.5%

c1ccc(Cc2ccccc2-c2c[nH]nn2)cc1
IC50 [3]: 70 µM
inhibition [1]: 80%
Ratio IC50 [4]: 1.5
IC50 [5]: 105 µM
inhibition [2]: 84%
Activity (HEK-293T): 0%

Clc1cccc(-c2c[nH]nn2)c1CCc1ccccc1
inhibition [1]: 94%
inhibition [2]: 76%
Activity (HEK-293T): 70.8%

Clc1cccc(-c2c[nH]nn2)c1/C=C/c1ccccc1
inhibition [1]: 97%
inhibition [2]: 32%
Activity (HEK-293T): 57.9%

c1ccc(-c2c[nH]nn2)c(CCC2CCCC2)c1
inhibition [1]: 89%
inhibition [2]: 74%
Activity (HEK-293T): 35.1%

c1ccc(CCc2ccccc2-c2c[nH]nn2)cc1
IC50 [3]: 51 µM
inhibition [1]: 90%
Ratio IC50 [4]: 2
IC50 [5]: 100 µM
inhibition [2]: 58%
Activity (HEK-293T): 3.7%

Clc1ccccc1-c1c[nH]nn1
Activity (HEK-293T): 0.2%
